Reference: US8013187B2, “2-cyclopenten-1-one oxime derivatives inhibiting production of TNF-α” (Amorepacific Corporation, priority 2004, dated 2011)
In brackets after ≈: the same amount, converted by molar mass.

What was measured:
PDE4A = molecular target: T1, PDE4A (Homo sapiens, UniProt P27815); assay: Inhibition of PDE4 isozymes ([3H]cAMP SPA): PDE4A; format: biochemical; details: @ 0.5 μg/ml, pH 7.4 Tris buffer
T1 construct: purchased Fab Gennix International Inc. (Frisco, Tex./USA)
Experimental: (§1) Inhibition of PDE4 Isozymes: Compounds of the instant invention were evaluated for their ability to inhibit isozymes of phosphodiesterase 4 (PDE4) obtained from Fab Gennix International Inc. (Frisco, Tex./USA) according to a literature method. […] In brief, a compound at a designated dose was assayed for their ability to inhibit the hydrolysis of cAMP by a PDE4 isozyme in pH 7.4 Tris buffer. The resulting level of cAMP was determined by the scintillation proximity assay (SPA) using a SPA kit from Amersham Biosciences according to the supplier's instruction manual (TRKQ7090 Phosphodiesterase [^3H]cAMP SPA enzyme assay).

PDE4D = molecular target: T2, PDE4D (Homo sapiens, UniProt Q08499); assay: Inhibition of PDE4 isozymes ([3H]cAMP SPA): PDE4D; format: biochemical; details: @ 0.1 μg/ml, pH 7.4 Tris buffer
T2 construct: purchased Fab Gennix International Inc. (Frisco, Tex./USA)
T2 sequence (Q08499 whole entry): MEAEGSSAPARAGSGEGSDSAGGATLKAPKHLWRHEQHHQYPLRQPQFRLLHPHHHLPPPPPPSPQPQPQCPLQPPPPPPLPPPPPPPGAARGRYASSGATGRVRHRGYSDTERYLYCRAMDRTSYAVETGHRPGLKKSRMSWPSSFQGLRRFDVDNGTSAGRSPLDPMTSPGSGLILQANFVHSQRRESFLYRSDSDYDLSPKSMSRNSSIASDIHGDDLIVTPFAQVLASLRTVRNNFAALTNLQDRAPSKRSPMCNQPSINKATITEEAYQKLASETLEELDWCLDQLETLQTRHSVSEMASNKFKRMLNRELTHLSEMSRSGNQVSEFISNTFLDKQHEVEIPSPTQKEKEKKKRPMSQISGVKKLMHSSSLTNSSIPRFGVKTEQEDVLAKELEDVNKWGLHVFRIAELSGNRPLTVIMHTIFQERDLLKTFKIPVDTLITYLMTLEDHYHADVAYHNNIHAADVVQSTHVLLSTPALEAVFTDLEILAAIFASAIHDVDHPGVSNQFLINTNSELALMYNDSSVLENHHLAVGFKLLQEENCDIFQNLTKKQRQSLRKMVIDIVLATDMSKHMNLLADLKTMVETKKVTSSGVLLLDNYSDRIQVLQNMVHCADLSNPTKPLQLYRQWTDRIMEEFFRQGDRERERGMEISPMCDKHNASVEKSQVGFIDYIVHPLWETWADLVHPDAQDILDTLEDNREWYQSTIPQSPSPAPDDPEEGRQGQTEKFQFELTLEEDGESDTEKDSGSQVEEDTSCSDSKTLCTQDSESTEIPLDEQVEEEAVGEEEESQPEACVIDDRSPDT
Experimental: as §1

[1] = test system: production of TNF-α in mice stimulated with LPS; assay: In vivo inhibition of TNF-α production in mice stimulated with LPS; details: Mus musculus, 2 h, LPS i.p., plasma at hour 2, read-out: % Inhibition of in vivo TNF-α production @ dose; for inhibition in vivo at 3 mg/kg: 3 mg/kg oral gavage
Experimental: [J. Pharmacol. Exp. Therapeut. vol 279, 1453-1461 (1996)] In brief, either a compound of the instant invention with vehicle or vehicle only (5% Tween 80) was administered by oral gavage (10 ml/kg body weight) at hour 0 to mice (Balb/C or ICR, 25˜30 g) fasted overnight. The mice were subjected to a peritoneal injection with […] LPS per mouse at hour 0.5, and blood was drawn from the abdominal vein at hour 2 following euthanasia with CO2. Then plasma separated from the drawn blood by centrifugation was subjected to an ELISA assay to measure the level of TNF-α.

[2] = test system: production of TNF-α in rat PBMCs; assay: Inhibition of TNF-α production in rat PBMCs (LPS/IFN-γ stimulated, ELISA); format: cell-based; details: PBMC; rat PBMCs, LPS + IFN-γ, 18 hours
Experimental: (§2) Compounds of this invention were evaluated for their ability to inhibit the production of TNF-α in stimulated immune cells. […] Compounds of the present invention were evaluated for their therapeutic activity in animal models for inflammatory or immunological disorders. Also compounds of this invention were assayed for their ability to inhibit PDE4 isozymes.
Inhibition of TNF-α Production in Rat PBMCs: Compounds of the present invention were evaluated for their ability to inhibit the production of TNF-α in rat peripheral blood mononuclear cells (PBMCs) as described in the literature. [Exp. Geront. vol 37, 235-247 (2002)] In brief, 6 ml rat blood drawn from the abdominal vein as treated with ACD (acid/citrate/dextrose) was carefully added in a tube containing 6 ml Ficoll 1077, and the tube was centrifuged for 30 min at 1500 rpm (415 G) at room temperature. The cell fraction (middle fraction) was suspended in a 50 ml tube containing phosphate buffered saline (PBS). The tube was centrifuged for 5 min at 2000 rpm (737 G). The resulting pellet was suspended in 6 ml PBS and 6 ml Ficoll 1077, and centrifuged for 30 min at 1500 rpm (415 G) at room temperature to remove remaining plasma. The cell fraction was suspended in PBS and centrifuged for 5 min at 2000 rpm. Such a washing was repeated twice. Then the collected cells were suspended in 10 ml RPMI-1640 containing 10% FBS and further diluted to contain 4×10^6 cells per ml. The cell suspension was dispensed into a 96-well plate at 100 μl per well, which was pre-supplemented with 1 μl of either DMSO (placebo) or a DMSO stock solution containing a designated concentration of a compound of this invention. The plate was cultured for an hour at 37° C. under 5% CO2 and 95% O2. To each well, was added 100 μl RPMI-1640 containing 0.1 μg/ml LPS, 5 U/ml IFN-γ, and 10% FBS. Then the plate was subjected to a culture for 18 hours at 37° C. under 5% CO2 and 95% O2. An aliquot of the supernatant from each well was subjected to an ELISA assay to determine the TNF-α level in the well.

[3] = test system: cAMP degradation in U937 cells; assay: In vitro inhibition of cAMP degradation in U937 cells (forskolin, cAMP EIA); format: cell-based; details: Homo sapiens, U-937, 10 μM forskolin
Experimental: In vitro Inhibition of cAMP Degradation in U937 Cells: Compounds of this invention were evaluated for their ability to inhibit in cells the hydrolysis of cAMP induced by forskolin, an adenylate cyclase stimulator. In brief, 3×10^5 U937 cells per well on a 96-well plate were incubated for 10 min at 37° C. in 200 μl RPMI-1640 containing 10% FBS, which was followed by treatment of either DMSO or a DMSO stock solution of a compound of the present invention at a designated dose. Then the cells were stimulated with 10 μM forskolin for 10 min at 37° C. The plate was centrifuged for 5 min at 1500 rpm. 120 μl of the supernatant was carefully removed from each well and 200 μl of lysis agent 1B was added to the well. Then the cell lysate was assayed to determine the level of cAMP by enzyme immunoassay (EIA) using a cAMP EIA kit from Amersham Pharmacia Biotech (Kit #RPN225). IC50's were determined for compounds of this invention from dose response curves for cAMP levels.

[4] = test system: production of TNF-α in human PBMCs; assay: Inhibition of TNF-α production in human PBMCs (ELISA); format: cell-based; details: PBMC
Experimental: as §2
Inhibition of TNF-α Production in Human PBMCs: Compounds of the present invention were evaluated for their ability to inhibit the production of TNF-α in human PBMCs as described in the literature. [J. Med. Chem. vol 39, 3238-3240 (1996)] Blood was freshly drawn from healthy human subjects as treated with ACD to isolate human PBMCs according to the procedure employed for rat PBMCs. The employed assay method for the ELISA against human TNF-α was essentially identical to that for the rat TNF-α ELISA assay.

[5] = test system: colitis induced by dextran sulfate sodium (DSS) in Balb/c mice; assay: DSS-induced colitis in mice; format: in vivo; details: 50 mg/kg BID oral, day 11, p>0.05
Experimental: Therapeutic Effect in DSS-induced Colitis: Compounds of the present invention were evaluated for their ability to treat colitis induced by dextran sulfate sodium (DSS) in mice according to the literature. […] In brief, female Balb/c mice weighing 16-20 g were randomized into groups (5˜6 per group) and were allowed from day 1 free access to water containing 5% DSS. A compound of this invention or sulfasalazine in 5% Tween 80 at 10 ml/kg was orally administered twice a day. Clinical activity score of each animal was measured on a daily basis by evaluating the stool consistency, body weight and rectal bleeding.

T1 sequence (P27815 whole entry): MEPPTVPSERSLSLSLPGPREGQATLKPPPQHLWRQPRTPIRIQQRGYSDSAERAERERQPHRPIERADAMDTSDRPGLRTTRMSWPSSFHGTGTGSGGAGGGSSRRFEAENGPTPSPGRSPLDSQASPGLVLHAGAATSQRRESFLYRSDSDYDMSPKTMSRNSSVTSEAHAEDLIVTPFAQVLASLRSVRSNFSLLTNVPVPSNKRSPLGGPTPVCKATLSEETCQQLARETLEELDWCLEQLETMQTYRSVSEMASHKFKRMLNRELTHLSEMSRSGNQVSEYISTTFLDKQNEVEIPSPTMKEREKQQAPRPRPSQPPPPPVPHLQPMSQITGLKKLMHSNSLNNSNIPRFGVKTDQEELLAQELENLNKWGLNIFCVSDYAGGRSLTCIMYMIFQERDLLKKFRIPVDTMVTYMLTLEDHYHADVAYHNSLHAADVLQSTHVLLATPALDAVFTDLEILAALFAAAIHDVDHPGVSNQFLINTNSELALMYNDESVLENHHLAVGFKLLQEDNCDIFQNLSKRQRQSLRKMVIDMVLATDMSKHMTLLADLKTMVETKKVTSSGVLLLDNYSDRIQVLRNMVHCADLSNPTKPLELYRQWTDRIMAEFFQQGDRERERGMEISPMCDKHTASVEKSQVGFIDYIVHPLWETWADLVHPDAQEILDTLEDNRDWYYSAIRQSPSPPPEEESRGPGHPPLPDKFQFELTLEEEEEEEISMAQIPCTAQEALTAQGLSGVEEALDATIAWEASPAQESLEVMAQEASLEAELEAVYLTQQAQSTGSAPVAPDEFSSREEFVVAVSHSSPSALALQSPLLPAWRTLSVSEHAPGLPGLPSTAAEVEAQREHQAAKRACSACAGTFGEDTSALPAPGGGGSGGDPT

| inhibition at 0.5 µg/mL (PDE4A) | inhibition at 0.1 µg/mL (PDE4D) | melting point | IC50 [3] | Compound | inhibition in vivo at 3 mg/kg [1] | IC50 [2] | inhibition in vivo at 0.3 mg/kg ([1]; 0.3 mg/kg oral gavage) | IC50 [4] | inhibition in vivo at 1 mg/kg ([1]; 1 mg/kg oral gavage) | inhibition in vivo at 0.2 mg/kg ([1]; 0.2 mg/kg oral gavage) | improvement in the clinical score activity from the control group [5] |
| --- | --- | --- | --- | --- | --- | --- | --- | --- | --- | --- | --- |
| 72% | 79% | 204 to 205 °C |  | ON=C1CCC(C2CCCC2)=C1c1ccc(F)cc1 [Example 1, 3-cyclopentyl-2-(4-fluorophenyl)-2-cyclopenten-1-one oxime] | 72% | 0.12 µg/mL |  |  |  |  |  |
|  |  | 173 to 174 °C | 0.1 µg/mL (≈ 0.361 µM) | ON=C1CCC(C2CCCC2)=C1c1ccc(F)c(F)c1 [Example 2, 3-cyclopentyl-2-(3,4-difluorophenyl)-2-cyclopenten-1-one oxime] |  | 0.035 µg/mL | 78% | 0.072 µg/mL (≈ 0.26 µM) |  |  |  |
| 89% | 78% | 143 to 144 °C |  | ON=C1CCC(C2CCCC2)=C1c1ccc(F)c(Cl)c1 [Example 3, 2-(3-chloro-4-fluorophenyl)-3-cyclopentyl-2-cyclopenten-1-one oxime] |  | 0.053 µg/mL |  |  |  |  |  |
| 33% | 38% | 186 to 188 °C |  | ON=C1CCC(C2CCCC2)=C1c1ccc2c(c1)OCO2 [Example 10, 3-cyclopentyl-2-(3,4-methylenedioxyphenyl)-2-cyclopenten-1-one oxime] |  | 0.097 µg/mL |  |  |  |  |  |
| 58% | 87% | 158 to 160 °C |  | ON=C1CCC(C2CCCCC2)=C1c1ccc(F)c(Cl)c1 [Example 28, 2-(3-chloro-4-fluorophenyl)-3-cyclohexyl-2-cyclopenten-1-one oxime] | 88% | 0.13 µg/mL |  |  |  |  |  |
|  |  | 116 to 120 °C | 0.87 µg/mL (≈ 3.18 µM) | CCCCC1=C(c2ccc3c(c2)OCO3)C(=NO)CC1 [Example 45, 3-butyl-2-(3,4-methylenedioxyphenyl)-2-cyclopenten-1-one oxime] |  | 0.69 µg/mL |  | 0.8 µg/mL (≈ 2.93 µM) | 42% |  |  |
| 0% | 23% | 136 to 137 °C |  | CCCC1=C(c2ccc(F)c(F)c2)C(=NO)CC1 [Example 79, 2-(3,4-difluorophenyl)-3-propyl-2-cyclopenten-1-one oxime] | 85% | 0.18 µg/mL |  |  |  |  |  |
|  |  |  | 0.27 µg/mL (≈ 0.981 µM) | COc1ccc(C2CNC(=O)C2)cc1OC1CCCC1 (centres unmarked) [Rolipram, rolipram, reference compound] |  | 0.05 to 0.1 µg/mL |  | 0.01 to 0.1 µg/mL (≈ 0.0363 to 0.363 µM) |  | ~50% |  |
|  |  |  |  | O=C(O)c1cc(/N=N/c2ccc(S(=O)(=O)Nc3ccccn3)cc2)ccc1O [sulfasalazine] |  |  |  |  |  |  | 19% |
